{"source": "paper PMC10998594", "about": "“Structural and mechanistic basis of the central energy-converting methyltransferase complex of methanogenesis” (Proceedings of the National Academy of Sciences of the …, 2024)", "target": "T1, MtrABCDEFG; Mtr(ABCDEFG)3; N5-methyl-tetrahydromethanopterin: coenzyme M methyltransferase core complex (Methanothermobacter marburgensis, UniProt P80183+P80185+P80186)", "T1 construct": "gene mtrE; native purification from M. marburgensis membranes (DDM/LMNG); trimer of MtrABCDEFG protomers, 430 kDa; MtrH not visible; soluble MtrA domain disordered, only MtrA 178-238 seen; printed lengths MtrB 100, MtrC 267, MtrD 233, MtrE 295, MtrF 68, MtrG 86; with Tetrahydromethanopterin S-methyltransferase subunit A; Tetrahydromethanopterin S-methyltransferase subunit B; Tetrahydromethanopterin S-methyltransferase subunit F; Tetrahydromethanopterin S-methyltransferase subunit G", "T1 sequence (P80183 whole entry, looked up, the tested form may be a part)": "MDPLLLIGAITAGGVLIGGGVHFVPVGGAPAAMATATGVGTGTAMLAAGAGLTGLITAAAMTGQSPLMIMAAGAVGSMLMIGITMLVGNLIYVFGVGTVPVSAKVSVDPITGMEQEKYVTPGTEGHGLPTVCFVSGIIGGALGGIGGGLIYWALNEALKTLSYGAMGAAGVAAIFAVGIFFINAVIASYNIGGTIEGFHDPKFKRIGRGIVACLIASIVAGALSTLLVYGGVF", "T1 sequence (P80185 whole entry, looked up, the tested form may be a part)": "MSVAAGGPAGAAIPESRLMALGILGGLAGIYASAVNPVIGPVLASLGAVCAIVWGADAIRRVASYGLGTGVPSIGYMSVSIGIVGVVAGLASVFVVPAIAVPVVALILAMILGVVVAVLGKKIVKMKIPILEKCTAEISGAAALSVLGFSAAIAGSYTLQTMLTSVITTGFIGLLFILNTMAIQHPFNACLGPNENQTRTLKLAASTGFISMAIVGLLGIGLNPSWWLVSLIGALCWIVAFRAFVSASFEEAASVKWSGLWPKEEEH", "T1 sequence (P80186 whole entry, looked up, the tested form may be a part)": "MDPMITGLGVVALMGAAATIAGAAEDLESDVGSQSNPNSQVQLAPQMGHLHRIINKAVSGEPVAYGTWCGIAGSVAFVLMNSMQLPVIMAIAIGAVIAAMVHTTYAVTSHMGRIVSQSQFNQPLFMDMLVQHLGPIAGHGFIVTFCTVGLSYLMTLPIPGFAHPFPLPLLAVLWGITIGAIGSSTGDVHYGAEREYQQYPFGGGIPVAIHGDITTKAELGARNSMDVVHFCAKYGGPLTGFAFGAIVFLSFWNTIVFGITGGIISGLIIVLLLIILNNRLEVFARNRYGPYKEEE", "assay": "cryo-EM structure, […] A", "assay_type": "binding", "conditions": "2 mM CoM, pH 7, 80 mM NaCl; site at wall of MtrCDE cavity (MtrE R113, N38; MtrC N188); two partially occupied conformations; putative assignment"}
{"compound": "O=S(=O)(O)CCS", "note": "[CoM]", "values": [{"measurement": "cryo-EM structure, 2.39 A", "result": "revealed the CoM binding site at the wall of the MtrCDE cavity"}]}
